# Where two headings read alike, the source gives them in different places.
# Experiments:
# Serratia 7 = assay: MIC, standard serial dilution on nutrient agar; format: cell-based; conditions: Serratia, 7, 18 h
# Experimental: (§2) The minimum inhibitory concentrations (mcg/ml) of the new compounds of this invention against various microorganisms were determined according to a standard serial dilution method using nutrient agar incubation medium at 37° C., the estimation being made after 18 hours incubation.
# Providencia ZAO = assay: MIC, standard serial dilution on nutrient agar; format: cell-based
# Experimental: as §2
# [1] = test system: Staphylococcus aureus MS 9883; assay: MIC, standard serial dilution on nutrient agar; format: cell-based
# [2] = test system: Staphylococcus aureus 209P; assay: MIC, standard serial dilution on nutrient agar; format: cell-based
# Experimental: as §2
# Serratia CAT = assay: MIC, standard serial dilution on nutrient agar; format: cell-based
# Experimental: as §2
# Klebsiella HOU = assay: MIC, standard serial dilution on nutrient agar; format: cell-based
# Experimental: as §2
# [3] = test system: Staphylococcus aureus APOI; assay: MIC, standard serial dilution on nutrient agar; format: cell-based; conditions: Staphylococcus aureus, 18 h
# Experimental: as §2
# Proteus rettgeri AUB = assay: MIC, standard serial dilution on nutrient agar; format: cell-based; conditions: Providencia rettgeri, 18 h
# Experimental: as §2
# Providencia Pv 37 = assay: MIC, standard serial dilution on nutrient agar; format: cell-based; conditions: PV37, 37° C., 18 hours
# Experimental: as §2
# Klebsiella BRIA = assay: MIC, standard serial dilution on nutrient agar; format: cell-based
# Experimental: as §2
# Enterobacter HAU = assay: MIC, standard serial dilution on nutrient agar; format: cell-based; conditions: Enterobacter, 18 h
# Experimental: as §2
# Erwinia 7-22 = assay: MIC, standard serial dilution on nutrient agar; format: cell-based; conditions: 722, 37° C., 18 hours
# Experimental: as §2
# Pyocyanique = assay: MIC, standard serial dilution on nutrient agar; format: cell-based; conditions: 18 h
# Experimental: as §2
# [4] = test system: Pseudomonas aeruginosa A3; assay: MIC, standard serial dilution on nutrient agar; format: cell-based
# Experimental: as §2
# Klebsiella THO = assay: MIC, standard serial dilution on nutrient agar; format: cell-based; conditions: Klebsiella, 18 h
# Experimental: as §2
# [5] = test system: Klebsiella pneumoniae 22 #3038; assay: MIC, standard serial dilution on nutrient agar; format: cell-based
# [6] = test system: Staphylococcus epidermides 109; assay: MIC, standard serial dilution on nutrient agar; format: cell-based
# Experimental: as §2
# Providencia 19 = assay: MIC, standard serial dilution on nutrient agar; format: cell-based; conditions: Providencia, 19, 18 h
# Experimental: as §2
# [7] = test system: Escherichia coli K-12 ML 1629; assay: MIC, standard serial dilution on nutrient agar; format: cell-based; conditions: K12ML1629, 37° C., 18 hours
# [8] = test system: Staphylococcus aureus MS 9610; assay: MIC, standard serial dilution on nutrient agar; format: cell-based
# Enterobacter 666 = assay: MIC, standard serial dilution on nutrient agar; format: cell-based; conditions: 37° C., 18 hours
# Experimental: as §2
# Proteus vulgaris BAC = assay: MIC, standard serial dilution on nutrient agar; format: cell-based
# Experimental: as §2
# Escherichia coli K-12 = assay: MIC, standard serial dilution on nutrient agar; format: cell-based; conditions: K12, 37° C., 18 hours
# Serratia BOT = assay: MIC, standard serial dilution on nutrient agar; format: cell-based
# Experimental: as §2
# Sarcina lutea PCI 1001 = assay: MIC, standard serial dilution on nutrient agar; format: cell-based; conditions: Micrococcus luteus, PCI1001, 18 h
# Experimental: as §2
# resistant bacteria = conditions: in words, background art; cited from earlier work
# [9] = acute toxicity, intravenous injection in mice; format: in vivo; conditions: mouse, in vivo
# Source text: (§1) Therefore, the new compounds of this invention are useful in therapeutic treatment of infections by various gram-negative and gram-positive bacteria, including the resistant bacterial strains. […] Accordingly, the low toxicity of the above new compounds of general formula (I) according to this invention is note-worthy, and the low toxicity of the new compounds of this invention with retaining the antibacterial activity substantially as high as that of the above-described known drugs will facilitate the clinical use of the new compounds, fulfilling the modern demand for providing efficient and less toxic drugs.
# mice = assay: acute toxicity, intravenous injection in mice; format: in vivo
# Source text: as §1
# [10] = Staphylococcus aureus, 209P, 18 h
# [11] = Pseudomonas aeruginosa, A3, 18 h
molecule,measurement,setting,value
NCC1OC(OC2C(N)CC(N)C(OC3OC(CO)C(O)C(N)C3O)C2O)C(O)C(O)C1O (stereo not shown) [Kanamycin A],MIC,Serratia 7,> 100 µg/mL
same,MIC,"Providencia ZAO; Providencia, 18 h",> 100 µg/mL
same,MIC,"[1]; Staphylococcus aureus, MS9883, 18 h",6.25 µg/mL
same,MIC,[2]; [10],3.12 µg/mL
same,MIC,"Serratia CAT; Serratia, 18 h",> 100 µg/mL
same,MIC,"Klebsiella HOU; Klebsiella, 18 h",> 100 µg/mL
same,MIC,[3],12.5 µg/mL
same,MIC,Proteus rettgeri AUB,> 100 µg/mL
same,MIC,Providencia Pv 37,> 100 µg/mL
same,MIC,"Klebsiella BRIA; Klebsiella, 18 h",> 100 µg/mL
same,MIC,Enterobacter HAU,> 100 µg/mL
same,MIC,Erwinia 7-22,> 100 µg/mL
same,MIC,Pyocyanique,50 µg/mL
same,MIC,[4]; [11],25 µg/mL
same,MIC,Klebsiella THO,> 100 µg/mL
same,MIC,"[5]; Klebsiella pneumoniae, 18 h",> 100 µg/mL
same,MIC,"[6]; Staphylococcus, 109, 18 h",25 µg/mL
same,MIC,Providencia 19,> 100 µg/mL
same,MIC,[7],> 100 µg/mL
same,MIC,"[8]; Staphylococcus aureus, MS9610, 18 h",6.25 µg/mL
same,MIC,Enterobacter 666,> 100 µg/mL
same,MIC,"Proteus vulgaris BAC; Proteus vulgaris, 18 h",> 100 µg/mL
same,MIC,Escherichia coli K-12,3.12 µg/mL
same,MIC,"Serratia BOT; Serratia, 18 h",6.25 µg/mL
same,MIC,Sarcina lutea PCI 1001,12.5 µg/mL
"NC[C@@H]1CC[C@@H](N)[C@@H](O[C@H]2[C@H](O)[C@@H](O[C@H]3O[C@H](CO)[C@@H](O)[C@H](N)[C@H]3O)[C@H](N)C[C@@H]2N)O1 [Dibekacin, 3',4'-dideoxykanamycin B]",MIC,Serratia 7,> 100 µg/mL
same,MIC,"Providencia ZAO; Providencia, 18 h",> 100 µg/mL
same,MIC,[2]; [10],0.78 µg/mL
same,MIC,"Serratia CAT; Serratia, 18 h",6.25 µg/mL
same,MIC,"Klebsiella HOU; Klebsiella, 18 h",> 100 µg/mL
same,MIC,[3],0.78 µg/mL
same,MIC,Proteus rettgeri AUB,100 µg/mL
same,MIC,Providencia Pv 37,> 100 µg/mL
same,MIC,"Klebsiella BRIA; Klebsiella, 18 h",> 100 µg/mL
same,activity against resistant bacteria,resistant bacteria,remarkably active against a wide variety of resistant bacteria
same,LD50,[9],80 to 120 mg/kg
same,MIC,Enterobacter HAU,> 100 µg/mL
same,MIC,Erwinia 7-22,> 100 µg/mL
same,MIC,Pyocyanique,6.25 µg/mL
same,MIC,[4]; [11],0.78 µg/mL
same,MIC,Klebsiella THO,1.56 µg/mL
same,MIC,"[5]; Klebsiella pneumoniae, 18 h",> 100 µg/mL
same,MIC,"[6]; Staphylococcus, 109, 18 h",0.78 µg/mL
same,MIC,Providencia 19,> 100 µg/mL
same,MIC,[7],1.56 µg/mL
same,MIC,Enterobacter 666,> 100 µg/mL
same,MIC,"Proteus vulgaris BAC; Proteus vulgaris, 18 h",12.5 µg/mL
same,MIC,Escherichia coli K-12,1.56 µg/mL
same,MIC,"Serratia BOT; Serratia, 18 h",25 µg/mL
same,MIC,Sarcina lutea PCI 1001,25 µg/mL
"NCC1CCC(O)C(OC2C(N)CC(NC(=O)C(O)CN)C(OC3OC(CO)C(O)C(N)C3O)C2O)O1 (racemic) [Compound No. 3, 1-N-(DL-2-hydroxy-3-aminopropionyl)-3',4'-dideoxykanamycin A]",MIC,Serratia 7,6.25 µg/mL
same,MIC,"Providencia ZAO; Providencia ZAO, nutrient agar, 37° C., 18 hours, read-out: MIC.",12.5 µg/mL
same,MIC,"[1]; MS9883, Staphylococcus aureus MS 9883, nutrient agar, 37° C., 18 hours, read-out: MIC.",3.12 µg/mL
same,MIC,"[2]; Staphylococcus aureus 209P, nutrient agar, 37° C., 18 hours, read-out: MIC.",3.12 µg/mL
same,MIC,"Serratia CAT; Serratia CAT, nutrient agar, 37° C., 18 hours, read-out: MIC.",12.5 µg/mL
same,MIC,"Klebsiella HOU; Klebsiella HOU, nutrient agar, 37° C., 18 hours, read-out: MIC.",3.12 µg/mL
same,MIC,[3],1.56 µg/mL
same,MIC,Proteus rettgeri AUB,6.25 µg/mL
same,MIC,Providencia Pv 37,6.25 µg/mL
same,MIC,"Klebsiella BRIA; Klebsiella BRIA, nutrient agar, 37° C., 18 hours, read-out: MIC.",3.12 µg/mL
same,MIC,Enterobacter HAU,25 µg/mL
same,MIC,Erwinia 7-22,1.56 µg/mL
same,MIC,Pyocyanique,50 µg/mL
same,MIC,"[4]; Pseudomonas aeruginosa A3, nutrient agar, 37° C., 18 hours, read-out: MIC.",3.12 µg/mL
same,MIC,Klebsiella THO,1.56 µg/mL
same,MIC,"[5]; Klebsiella pneumoniae 22 #3038, nutrient agar, 37° C., 18 hours, read-out: MIC.",3.12 µg/mL
same,MIC,"[6]; Staphylococcus epidermides 109, nutrient agar, 37° C., 18 hours, read-out: MIC.",3.12 µg/mL
same,MIC,Providencia 19,6.25 µg/mL
same,MIC,[7],1.56 µg/mL
same,MIC,"[8]; MS9610, Staphylococcus aureus MS 9610, nutrient agar, 37° C., 18 hours, read-out: MIC.",3.12 µg/mL
same,MIC,Enterobacter 666,1.56 µg/mL
same,MIC,"Proteus vulgaris BAC; Proteus vulgaris BAC, nutrient agar, 37° C., 18 hours, read-out: MIC.",3.12 µg/mL
same,MIC,Escherichia coli K-12,1.56 µg/mL
same,MIC,"Serratia BOT; Serratia BOT, nutrient agar, 37° C., 18 hours, read-out: MIC.",12.5 µg/mL
same,MIC,Sarcina lutea PCI 1001,6.25 µg/mL
gentamicin,LD50 value (acute toxicity),mice,80 to 120 mg/kg

# Source: patent US4298727A, “3',4'-Dideoxykanamycin A and 1-N-(S)-α-hydroxy-ω-aminoalkanoyl) derivatives thereof” (Zaidan Hojin Biseibutsu Kagaku KenkyuKai, priority 1979, dated 1981)
